{"source": "patent US20110003689A1", "about": "“USE OF POLYMERIC GUANIDINE DERIVATIVES FOR THE CONTROL OF UNWANTED MICROORGANISMS IN CROP PROTECTION” (AKA TECHNOLOGY GMBH, priority 2007, published 2011)", "key": {"[1]": {"system": "Pyrenophora teres", "assay": "Pyrenophora teres test (barley)/curative (Example U)", "format": "in vivo"}, "[2]": {"system": "Venturia inaequalis", "assay": "Venturia test (apple)/protective, combinations (Example L)", "procedure": "After the spray coating has dried on, the plants are inoculated with an aqueous conidia suspension of the apple scab pathogen Venturia inaequalis and then remain in an incubation cabin at about 20° C. and 100% relative atmospheric humidity for 1 day. The plants are then placed in a greenhouse at about 21° C. and a relative atmospheric humidity of about 90%. Evaluation is carried out 10 days after inoculation."}, "[3]": {"system": "Blumeria graminis f. sp. hordei", "assay": "Blumeria graminis test (barley)/curative (Example P)", "format": "in vivo", "settings": "168 h, read-out: Efficacy in % found"}, "[4]": {"system": "Botrytis cinerea", "assay": "Botrytis test (bean)/protective (Example N)", "procedure": "After the spray coating has dried on, 2 small pieces of agar colonized by Botrytis cinerea are placed onto each leaf. The inoculated plants are placed in a dark chamber at about 20° C. and 100% relative atmospheric humidity. 2 days after the inoculation, the size of the infected areas on the leaves is evaluated."}, "[5]": {"system": "Puccinia triticina", "assay": "Puccinia triticina test (wheat)/curative (Example T)", "format": "in vivo"}, "[6]": {"system": "Fusarium graminearum", "format": "in vivo", "settings": "500 ppm"}, "[7]": {"system": "Alternaria solani", "assay": "Alternaria test (tomato)/protective, combinations (Example M)", "format": "in vivo"}, "[8]": {"system": "Blumeria graminis f. sp. hordei", "assay": "Blumeria graminis test (barley)/protective (Example O)", "format": "in vivo", "settings": "125 ppm", "protocol": "[table] […] Evaluation is carried out 7 days after inoculation."}, "[9]": {"system": "Plasmopara viticola", "assay": "Plasmopara test (grapevine)/protective, combinations (Example K)", "format": "in vivo"}, "[10]": {"system": "Leptosphaeria nodorum", "assay": "Leptosphaeria nodorum test (wheat)/curative (Example R)", "format": "in vivo", "settings": "62.5 ppm"}, "[11]": {"system": "Leptosphaeria nodorum", "assay": "Leptosphaeria nodorum test (wheat)/protective (Example Q)", "format": "in vivo", "settings": "62.5 ppm"}, "[12]": {"system": "Phytophthora infestans", "format": "in vivo"}, "[13]": {"settings": "Alternaria solani, 72 h, read-out: Efficacy in % found"}}, "note": "Counter-ions that a name gives are not always drawn. Like-named read-outs stand apart in the source and are kept apart here.", "data": [{"molecule": "Fc1ccc([C@]2(Cn3cncn3)O[C@H]2c2ccccc2Cl)cc1", "note": "(racemic) [(B-12) epoxiconazole, epoxiconazole]", "values": [{"measurement": "Efficacy in % found", "setting": "[1]; 500 ppm", "result": 78, "unit": "%"}]}, {"molecule": "CC(C)(C)C(O)C(Oc1ccc(-c2ccccc2)cc1)n1cncn1", "note": "(centres unmarked) [(B-3) bitertanol, bitertanol]", "values": [{"measurement": "Efficacy in % found", "setting": "[2]; 2.5 ppm", "result": 63, "unit": "%"}, {"measurement": "pest or weed control at 500 ppm", "setting": "[3]; 500 ppm", "result": 63, "unit": "%"}]}, {"molecule": "CC1COC(Cn2cncn2)(c2ccc(Oc3ccc(Cl)cc3)cc2Cl)O1", "note": "(centres unmarked) [(B-7) difenoconazole, difenoconazole]", "values": [{"measurement": "pest or weed control at 250 ppm", "setting": "[3]", "result": 78, "unit": "%"}]}, {"molecule": "CC1(C(=O)Nc2ccc(O)c(Cl)c2Cl)CCCCC1", "note": "[(B-16) fenhexamid, fenhexamid]", "values": [{"measurement": "Efficacy in % found", "setting": "[4]; 2.5 ppm", "result": 0, "unit": "%"}]}, {"molecule": "C=CCOC(Cn1ccnc1)c1ccc(Cl)cc1Cl", "note": "(centres unmarked) [(B-26) imazalil, imazalil]", "values": [{"measurement": "Efficacy in % found", "setting": "[5]; 500 ppm", "result": 83, "unit": "%"}]}, {"molecule": "CCCN(CCOc1c(Cl)cc(Cl)cc1Cl)C(=O)n1ccnc1", "note": "[(B-39) prochloraz, prochloraz]", "values": [{"measurement": "Efficacy in % found", "setting": "[6]", "result": 63, "unit": "%"}]}, {"molecule": "OC(Cc1ccccc1Cl)(Cn1nc[nH]c1=S)C1(Cl)CC1", "note": "(centres unmarked) [(B-41) prothioconazole, prothioconazole]", "values": [{"measurement": "pest or weed control at 5 ppm", "setting": "[7]; [13]", "result": 1, "unit": "%"}, {"measurement": "Efficacy in % found", "setting": "[1]; 125 ppm", "result": 78, "unit": "%"}]}, {"molecule": "CCCN(CC)CC1COC2(CCC(C(C)(C)C)CC2)O1", "note": "(centres unmarked) [(B-46) spiroxamine, spiroxamine]", "values": [{"measurement": "Efficacy in % found", "setting": "[5]; 1000 ppm", "result": 40, "unit": "%"}]}, {"molecule": "CC(C)(C)C(O)(CCc1ccc(Cl)cc1)Cn1cncn1", "note": "(centres unmarked) [(B-47) tebuconazole, tebuconazole]", "values": [{"measurement": "pest or weed control at 5 ppm", "setting": "[7]; [13]", "result": 29, "unit": "%"}, {"measurement": "Efficacy in % found", "setting": "[1]; 250 ppm", "result": 60, "unit": "%"}]}, {"molecule": "CCCCCCCCCCCCCN1CC(C)OC(C)C1", "note": "(centres unmarked) [(B-52) tridemorph, tridemorph]", "values": [{"measurement": "pest or weed control at 250 ppm", "setting": "[3]", "result": 75, "unit": "%"}]}, {"molecule": "Cn1cc(C(=O)Nc2ccc(F)cc2-c2ccc(Cl)c(Cl)c2)c(C(F)F)n1", "note": "[(C-2) bixafen, N-(3′,4′-dichloro-5-fluoro-1,1′-biphenyl-2-yl)-3-(difluoromethyl)-1-methyl-1H-pyrazole-4-carboxamide]", "values": [{"measurement": "pest or weed control at 1.25 ppm", "setting": "[7]; Alternaria solani, 72 h, 1.25 ppm, read-out: Efficacy in % found", "result": 49, "unit": "%"}, {"measurement": "pest or weed control at 500 ppm", "setting": "[3]; 500 ppm", "result": 63, "unit": "%"}]}, {"molecule": "O=C(Nc1ccccc1-c1ccc(Cl)cc1)c1cccnc1Cl", "note": "[(C-3) boscalid, boscalid]", "values": [{"measurement": "Efficacy in % found", "setting": "[2]; 5 ppm", "result": 36, "unit": "%"}]}, {"molecule": "O=C(NCCc1ncc(C(F)(F)F)cc1Cl)c1ccccc1C(F)(F)F", "note": "[(C-6) fluopyram, N-{2-[3-chloro-5-(trifluoromethyl)pyridin-2-yl]ethyl}-2-(trifluoromethyl)benzamide]", "values": [{"measurement": "pest or weed control at 2.5 ppm", "setting": "[7]; [13]", "result": 23, "unit": "%"}]}, {"molecule": "CC(C)CC(C)c1sccc1NC(=O)c1cn(C)nc1C(F)(F)F", "note": "(centres unmarked) [(C-12) penthiopyrad, penthiopyrad]", "values": [{"measurement": "Efficacy in % found", "setting": "[2]; 5 ppm", "result": 60, "unit": "%"}, {"measurement": "pest or weed control at 250 ppm", "setting": "[3]", "result": 88, "unit": "%"}]}, {"molecule": "Cc1nn(C)c(F)c1C(=O)Nc1ccccc1C(C)CC(C)C", "note": "(centres unmarked) [(C-14), N-[2-(1,3-dimethylbutyl)phenyl]-5-fluoro-1,3-dimethyl-1H-pyrazole-4-carboxamide]", "values": [{"measurement": "pest or weed control at 2.5 ppm", "setting": "[7]; [13]", "result": 0, "unit": "%"}, {"measurement": "pest or weed control at 250 ppm", "setting": "[3]", "result": 67, "unit": "%"}]}, {"molecule": "Cn1cc(C(=O)Nc2ccccc2OC(F)(F)C(F)F)c(C(F)F)n1", "note": "[(C-19), 3-(difluoromethyl)-1-methyl-N-[2-(1,1,2,2-tetrafluoroethoxy)phenyl]-1H-pyrazole-4-carboxamide]", "values": [{"measurement": "Efficacy in % found", "setting": "[2]; 5 ppm", "result": 35, "unit": "%"}, {"measurement": "Efficacy in % found", "setting": "[8]", "result": 78, "unit": "%"}]}, {"molecule": "CC(C)C1C2CCC1c1c(NC(=O)c3cn(C)nc3C(F)F)cccc12", "note": "(centres unmarked) [(C-41) isopyrazam, 3-(difluoromethyl)-1-methyl-N-[1,2,3,4-tetrahydro-9-(1-methylethyl)-1,4-methanonaphthalen-5-yl]-1H-pyrazole-4-carboxamide]", "values": [{"measurement": "pest or weed control at 500 ppm", "setting": "[3]", "result": 78, "unit": "%"}]}, {"molecule": "CSC1=N[C@@](C)(c2ccccc2)C(=O)N1Nc1ccccc1", "note": "[(D-2) fenamidone, fenamidone]", "values": [{"measurement": "Efficacy in % found", "setting": "[9]; 1 ppm", "result": 19, "unit": "%"}]}, {"molecule": "CO/C=C(/C(=O)OC)c1ccccc1Oc1cc(Oc2ccccc2C#N)ncn1", "note": "[(D-4) azoxystrobin, azoxystrobin]", "values": [{"measurement": "Efficacy in % found", "setting": "[10]", "result": 60, "unit": "%"}]}, {"molecule": "CO/N=C(/C1=NOCCO1)c1ccccc1Oc1ncnc(Oc2ccccc2Cl)c1F", "note": "[(D-8) fluoxastrobin, fluoxastrobin]", "values": [{"measurement": "pest or weed control at 5 ppm", "setting": "[7]; [13]", "result": 35, "unit": "%"}, {"measurement": "pest or weed control at 500 ppm", "setting": "[3]; 500 ppm", "result": 78, "unit": "%"}]}, {"molecule": "COC(=O)N(OC)c1ccccc1COc1ccn(-c2ccc(Cl)cc2)n1", "note": "[(D-13) pyraclostrobin, pyraclostrobin]", "values": [{"measurement": "pest or weed control at 5 ppm", "setting": "[7]; [13]", "result": 49, "unit": "%"}, {"measurement": "Efficacy in % found", "setting": "[11]", "result": 94, "unit": "%"}]}, {"molecule": "CON=C(C(=O)OC)c1ccccc1CON=C(C)c1cccc(C(F)(F)F)c1", "note": "[(D-15) trifloxystrobin, trifloxystrobin]", "values": [{"measurement": "pest or weed control at 5 ppm", "setting": "[7]; [13]", "result": 40, "unit": "%"}, {"measurement": "Efficacy in % found", "setting": "[5]; 500 ppm", "result": 83, "unit": "%"}]}, {"molecule": "O=C(NCc1ncc(C(F)(F)F)cc1Cl)c1c(Cl)cccc1Cl", "note": "[(E-6) fluopicolide, fluopicolide]", "values": [{"measurement": "Efficacy in % found", "setting": "[12]; 2 ppm", "result": 9, "unit": "%"}]}, {"molecule": "N#Cc1c(Cl)c(Cl)c(Cl)c(C#N)c1Cl", "note": "[(F-4) chlorothalonil, chlorothalonil]", "values": [{"measurement": "Efficacy in % found", "setting": "[1]; 1000 ppm", "result": 30, "unit": "%"}]}, {"molecule": "Cc1cc(C)nc(Nc2ccccc2)n1", "note": "[(G-10) pyrimethanil, pyrimethanil]", "values": [{"measurement": "Efficacy in % found", "setting": "[4]; 12.5 ppm", "result": 13, "unit": "%"}]}, {"molecule": "CC(C)[C@H](NC(=O)O)C(=O)N[C@H](C)c1nc2ccc(F)cc2s1", "note": "[(G-15) benthiavalicarb, benthiavalicarb]", "values": [{"measurement": "Efficacy in % found", "setting": "[12]; 0.5 ppm", "result": 23, "unit": "%"}]}, {"molecule": "COc1ccc(C(=CC(=O)N2CCOCC2)c2ccc(Cl)cc2)cc1OC", "note": "[(G-16) dimethomorph, dimethomorph]", "values": [{"measurement": "Efficacy in % found", "setting": "[9]; 1 ppm", "result": 0, "unit": "%"}]}, {"molecule": "Cc1ccc(C(C)NC(=O)[C@@H](NC(=O)OC(C)C)C(C)C)cc1", "note": "(some centres unmarked) [(G-18) iprovalicarb, iprovalicarb]", "values": [{"measurement": "Efficacy in % found", "setting": "[12]; 2 ppm", "result": 30, "unit": "%"}, {"measurement": "Efficacy in % found", "setting": "[9]; 0.5 ppm", "result": 0, "unit": "%"}]}, {"molecule": "CC(C)NC(=O)N1CC(=O)N(c2cc(Cl)cc(Cl)c2)C1=O", "note": "[(G-31) iprodione, iprodione]", "values": [{"measurement": "Efficacy in % found", "setting": "[4]; 12.5 ppm", "result": 11, "unit": "%"}]}, {"molecule": "CCCOC(=O)NCCCN(C)C", "note": "[(G-35) propamocarb hydrochloride, propamocarb hydrochloride]", "values": [{"measurement": "Efficacy in % found", "setting": "[12]; 100 ppm", "result": 0, "unit": "%"}, {"measurement": "Efficacy in % found", "setting": "[9]; 400 ppm", "result": 0, "unit": "%"}]}, {"molecule": "COCC(=O)N(c1c(C)cccc1C)[C@H](C)C(=O)OC", "note": "[(G-55) metalaxyl-M, metalaxyl-M]", "values": [{"measurement": "Efficacy in % found", "setting": "[12]; 2.5 ppm", "result": 10, "unit": "%"}]}, {"molecule": "N#Cc1c[nH]cc1-c1cccc2c1OC(F)(F)O2", "note": "[(G-60) fludioxonil, fludioxonil]", "values": [{"measurement": "Efficacy in % found", "setting": "[1]; 250 ppm", "result": 78, "unit": "%"}]}, {"molecule": "O=[N+]([O-])c1cc(C(F)(F)F)c(Cl)c([N+](=O)[O-])c1Nc1ncc(C(F)(F)F)cc1Cl", "note": "[(G-64) fluazinam, fluazinam]", "values": [{"measurement": "Efficacy in % found", "setting": "[9]; 5 ppm", "result": 0, "unit": "%"}]}, {"molecule": "CCNC(=O)NC(=O)/C(C#N)=N/OC", "note": "[(G-73) cymoxanil, cymoxanil]", "values": [{"measurement": "Efficacy in % found", "setting": "[9]; 50 ppm", "result": 0, "unit": "%"}]}, {"molecule": "CCO[PH](=O)O", "note": "[(G-86) fosetyl-Al, fosetyl-Al]", "values": [{"measurement": "Efficacy in % found", "setting": "[9]; 200 ppm", "result": 0, "unit": "%"}]}, {"molecule": "OP(O)O", "note": "[(G-101) phosphorous acid, phosphorous acid]", "values": [{"measurement": "Efficacy in % found", "setting": "[9]; 400 ppm", "result": 30, "unit": "%"}]}, {"molecule": "mancozeb [(F-20) mancozeb]", "values": [{"measurement": "Efficacy in % found", "setting": "[7]; 50 ppm", "result": 31, "unit": "%"}, {"measurement": "Efficacy in % found", "setting": "[12]; 25 ppm", "result": 20, "unit": "%"}, {"measurement": "Efficacy in % found", "setting": "[9]; 100 ppm", "result": 5, "unit": "%"}]}, {"molecule": "propineb [(F-24) propineb]", "values": [{"measurement": "Efficacy in % found", "setting": "[12]; 100 ppm", "result": 15, "unit": "%"}, {"measurement": "Efficacy in % found", "setting": "[9]; 100 ppm", "result": 51, "unit": "%"}]}]}
